Assays:
Adenosine receptor A2a = Adenosine receptor A2a (Rattus norvegicus, UniProt P30543)
Description: Displacement of [3H]MSX-2 from adenosine A2A receptor in rat brain striatal membrane after 30 mins by scintillation counting

Adenosine receptor A1 = target: T1, Adenosine receptor A1 (Rattus norvegicus, UniProt P25099)
T1 sequence (P25099 whole entry): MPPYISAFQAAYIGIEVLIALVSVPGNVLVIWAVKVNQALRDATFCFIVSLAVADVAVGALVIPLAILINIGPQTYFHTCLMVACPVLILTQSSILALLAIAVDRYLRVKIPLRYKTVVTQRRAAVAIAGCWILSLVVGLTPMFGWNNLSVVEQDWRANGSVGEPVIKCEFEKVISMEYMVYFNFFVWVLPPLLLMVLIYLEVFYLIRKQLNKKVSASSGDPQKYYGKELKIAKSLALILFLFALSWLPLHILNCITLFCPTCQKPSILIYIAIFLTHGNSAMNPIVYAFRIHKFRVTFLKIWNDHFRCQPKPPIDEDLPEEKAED
Description: Displacement of [3H]CCPA from adenosine A1 receptor in rat brain cortical membrane after 90 mins by scintillation counting

Sequence of Adenosine receptor A2a (P30543 whole entry): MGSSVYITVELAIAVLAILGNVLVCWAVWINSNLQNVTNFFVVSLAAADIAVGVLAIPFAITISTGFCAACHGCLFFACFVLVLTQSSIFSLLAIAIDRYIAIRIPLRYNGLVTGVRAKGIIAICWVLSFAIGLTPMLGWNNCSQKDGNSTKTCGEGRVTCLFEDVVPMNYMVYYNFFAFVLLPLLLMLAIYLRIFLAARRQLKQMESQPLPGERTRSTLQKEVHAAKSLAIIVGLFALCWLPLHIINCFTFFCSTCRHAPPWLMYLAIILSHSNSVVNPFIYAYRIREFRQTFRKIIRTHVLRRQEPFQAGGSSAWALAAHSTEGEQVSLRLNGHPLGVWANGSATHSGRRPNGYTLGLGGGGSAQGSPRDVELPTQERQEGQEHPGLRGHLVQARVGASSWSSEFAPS

Ki (Adenosine receptor A1)	Structure (SMILES)	Ki (Adenosine receptor A2a)
5 nM	C#CCn1c(-c2ccccc2)nc2sc3c(c2c1=O)CCC3	9700 nM
6 nM	C#CCn1c(C)nc2sc(C)c(C)c2c1=O	3790 nM
4 nM	C#CCn1c(Cc2ccc(F)cc2)nc2sc(C)c(C)c2c1=O	7620 nM
–	C#CCOc1nc(-c2ccccc2)nc2sc3c(c12)CCCC3	3 nM
–	C#CCn1c(-c2ccccc2)nc2sc(C)c(C)c2c1=O	29 nM
–	C#CCn1c(C)nc2sc3c(c2c1=O)CCCC3	7 nM

Structure (SMILES)	Ki (Adenosine receptor A1)	Ki (Adenosine receptor A2a)
C#CCn1c(Cc2ccc(F)cc2)nc2sc3c(c2c1=O)CCCC3	21 nM	14 nM
C#CCn1c(C)nc2sc3c(c2c1=O)CCC3	6 nM	18 nM
